Source: patent publication US20200124597A1, “INDICATOR RELEASE SYSTEM FOR THE DETECTION OF AN ANALYTE IN A FOODSTUFF, TEST STRIP THEREFOR, AND ANALYSIS METHOD” (Bundesrepublik Deutschland, vertreten durch die …, priority 2017, published 2020)

Legend:
[1] = tested on: rabbit antisera against the hapten sulfathiazole (STZ), capping antibody; assay: Lateral flow test strips spotted with M4-A1@B, developed in raw milk spiked with STZ, fluorescence reader; format: binding; settings: M4-A1@B on nitrocellulose strips, ratio FB/(FA+FB) with lateral flow reader, data considerably noisy
Source text: As explained above, after development the strips show two different zones, a first one (zone A) at which the sensing material (indicator reservoir) has been deposited, and a second one (zone B) in which the released dye is collected that could travel with the solvent front (see FIGS. 2, 7).
In case of absence of a sulfonamide, the second zone (zone B in FIG. 7) should show minimum signal. In case of presence, the fluorescence in that zone should correlate with analyte concentration. The amount of dye released can be quantified with a fluorescence reader with appropriate excitation and emission wavelengths or by taking pictures under proper light excitation conditions. Strips were prepared using a Hi-Flow nitrocellulose paper from Millipore®. […]
Afterwards, the strips were dipped into 150 μL of raw milk spiked with various amounts of STZ, developed and let dried at room temperature. […] Afterwards, the fluorescence histograms were registered with a lateral flow reader and a home-made housing equipped with an LED (λexc 505 nm) as excitation source and filters (532 nm cut-off and 550 nm long-pass) that can be fitted to a conventional digital camera. […] FIG. 6 c) (luminance of dye released in second zone and FIG. 6 d) (ratio of luminance) allows to compare the reader results with those obtained by extracting the luminance from images taken with a camera. […]

[2] = tested on: rabbit antisera against the hapten sulfathiazole (STZ), capping antibody; assay: Biphasic extraction assay: fluorescence of CHCl3 phase after dye extraction from M7-A1@B suspensions in raw milk; format: binding
Description: (§1) Capping of the material was performed following the same conditions as for the preparation of M4-A1 @B, but in this case 1 mg of the mesoporous silica was suspended in 450 μL of PBS containing 360 ppm of BODIPY-PEG and 2 μL of the serum for 30 min. Thereafter, 50 μL of BSA solution (5%) were added to the suspensions and stirred for another 1.5 h. […] Before centrifuging the suspension in the last washing cycle, it was divided into 10 fractions, which were dried separately for 1 h in the vacuum at room temperature and stored in the fridge, yielding 10 fractions of ca. 100 μg of M7-A1@B.
Next, the effect of the concentration of STZ and SPY was studied. For this purpose, we repeated the procedure but added different concentrations of the corresponding sulfonamide into each fraction and took an aliquot from the chloroform phase after 10 min of reaction (FIG. 10). In this case, milk stored in the fridge for 5 and 7 d was used. It is obvious that a highly sensitive response could be found in both cases, with an LOQ of 0.5±0.1 ppb and an IC50 of 0.8±0.1 ppb for STZ. For SPY, both the fluorescence increase and the sensitivity are lower (LOQ: 4.6±2.2 ppb, IC50: 16.2±6.9 ppb).
The red points were classified as outliers and not considered in the fit (N=2, only one repetition shown).
The sensitivity could further be improved by increasing the number of washing cycles of the material before use, although the fluorescence enhancement is lower due to partial dye removal during continued washing. […] Furthermore, the amount of dye released in the working range of the assay at lower STZ concentrations (100 ppt) is at least 100 times higher, preferably 200-times higher than that of antibody displaced, decreasing to 80-times at concentrations higher than 50 ppb, which is a remarkable sign of signal amplification especially in the desired low-concentration range.

[3] = tested on: rabbit antisera against the hapten sulfathiazole (STZ), capping antibody; assay: Fluorescence of supernatants of M7-A1@B (BODIPY-PEG-loaded, antibody-gated) suspensions in milk; format: binding; settings: M7-A1@B suspension in milk, 10 min, 535 nm (λexc=515 nm), logistic fit
Description: as §1
In an attempt to avoid the extraction process, and with the aim to compare the effect of different dyes to M4-A1 @B, respectively, first of all the material M7-A1@B was tested in absence and in presence of several amounts of STZ following similar a procedure as explained previously. For that purpose, two independent experiments were performed, using in one case milk provided from FOSS stored in the fridge (6 d) and fresh milk from Poland (1 d in the fridge). […] Then, 20 μL of STZ solutions of different concentrations were added to the rest of the fractions (80 μL), the vials were shaken in the thermomixer at 800 rpm for 10 min, centrifuged and the fluorescence of the supernatants measured at 535 nm with λexc=515 nm (FIG. 9).

[4] = tested on: rabbit antisera against the hapten sulfathiazole (STZ), capping antibody; assay: Fluorescence of supernatants of M4-A1@B (SRB-loaded, antibody-gated MCM-41) suspensions after adding STZ prepared in milk; format: binding; settings: M4-A1@B suspension in PBS, STZ solutions prepared in milk, λem=585 nm, λexc=560 nm, logistic fit
Description: The pores of the particles were filled with the dye sulforhodamine B (SRB). With the aim of loading the maximum amount of dye into the MCM-41 scaffold, a solution of the dye SRB sodium salt (2 mmol L^−1) was prepared in acetonitrile. Then, 2 portions of 12.0 mL were added to 300 mg of each MCM-41 nano- or microparticle material, yielding a suspension with a concentration of 0.8 mmol dye (g solid)^−1. The suspension was stirred for 24 h at room temperature. Two fractions of each type of material (2×40 mL) were centrifuged (5 min at 6000 rpm) and concentrated in a final volume of 1.5 mL. Thereafter, volumes of 0.14 mL and 0.7 mL of hapten solution (0.02 and 0.01 mmol) in DMF were added, arriving at final suspensions of 0.2 and 0.1 mmol (g solid)^−1. The resulting suspensions were stirred for 5.5 h at room temperature. Finally, the suspensions were centrifuged (5 min at 6000 rpm), and the solids obtained were washed with acetonitrile (0.75 mL), isolated by centrifugation, and dried at 35° C. in vacuum during 12 h. […]
The fluorescence enhancement caused by STZ at different concentrations was assessed in milk as well. […] Then, 6 μL of STZ solutions of different concentrations were added to the other fractions, the vials shaken by hand for 20 s and centrifuged before measuring the fluorescence of the supernatants in a fluorometer (λem=585 nm, λexc=560 nm).

[5] = Dye partitioning from water/milk to CHCl3; format: physicochemical; settings: phase transfer from water/milk to CHCl3
Description: as §1

[6] = M7-A1@B in raw milk, CHCl3 phase, 10 min reaction, 538 nm (λexc=515 nm)
[7] = M7-A1@B, increased number of washing cycles of the material before use

With `Nc1ccc(S(=O)(=O)Nc2nccs2)cc1` [STZ, sulfathiazole] the IC50 [1] was “below 1 ppb”, the IC50 [2, 6] was 0.8±0.1 ppb and the LOQ [2, 6] was 0.5±0.1 ppb. For the same compound, the IC50 [2, 7] was 0.28±0.15 ppb, the LOQ [2, 7] was 0.02±0.01 ppb and the IC50 [3] was 1.5±1.4 ppb. The “limit of quantification (LOQ)” value [3] was 65±18 ppt, the “IC20, i.e. limit of quantification (LOQ)” value [4] was 87±8 ppb and the IC50 [4] was 172±12 ppb.
For `CCN(CC)c1ccc2c(-c3ccc(S(=O)(=O)O)cc3S(=O)(=O)[O-])c3ccc(=[N+](CC)CC)cc-3oc2c1` [sulforhodamine B], the dye partitioning coefficient [5] was “too low to undergo efficient phase transfer”.
`Nc1ccc(S(=O)(=O)Nc2ccccn2)cc1` [SPY, sulfapyridine] showed an IC50 [2, 6] of 16.2±6.9 ppb, an LOQ [2, 6] of 4.6±2.2 ppb and an IC50 [2, 7] of 4.4±1.7 ppb. The LOQ [2, 7] was 0.78±0.38 ppb.
